Assay results from patent publication US10329243B2, “Biphenyl derivative and uses thereof” (XI'AN LIBANG PHARMACEUTICAL CO., LTD, priority 2015, dated 2019).

Tests used:
Assay type in all cases: in vivo, SD rats
Details in all cases: rat, in vivo
[1] = system: SOD; assay: SOD determination, permanent cerebral ischemia model
Method: (§1) Rats were intraperitoneally injected with 10% chloral hydrate 350 mg/kg after anesthesia and opened up at the center of the neck in accordance with the Zea Longa modified method. The right common carotid artery was separated, and the right external carotid artery branches was ligated. A small opening was made at the distal end of the external carotid artery, and a previously prepared thread was inserted through the common carotid artery and the external carotid artery bifurcation into the internal carotid artery, till the anterior end of the middle cerebral artery, with an immersed depth of 18 to 19 mm. The thread was then secured, and the wound was sutured layer by layer. After the operation, the rats were placed in a clean incubator to wake up. […] The sham operation group, the permanent cerebral ischemia model group, and the Example groups were prepared strictly according to the requirements of the cerebral ischemic reperfusion model, while in the sham operation group the thread was put only into the external carotid artery. The animals were allowed to eat and drink freely after waking up. The sham operation group, the permanent cerebral ischemia model group, and the Example groups were administered intravenously the aqueous solution of the biphenyl derivatives in PEG400 at 40 mg/kg (40 mg/kg means that 40 mg of the test compound per kg of the body weight of rats) 30 min before insertion of thread and 12 h after embolism, respectively. The sham operation group and the permanent cerebral ischemia model group were injected with the same amount of blank PEG400 aqueous solution at the same time point.
(§2) 24 hours after the embolism, 8 rats in each group were sacrificed by decapitation, the brain was removed, rinsed with PBS (pH 7.4) at −20°i for 20 min, evenly sliced (with a thickness of 2 mm), stained in a 2% TTC solution at 37°% in the dark for 30 min, fixed in 10% formalin for 24 h, and photographs were taken to analyze the infarct volume. A mixture of femoral arterial and venous blood was drawn from another 8 rats in each group under anesthesia, placed in a low temperature centrifuge at 4° C., centrifuged at 3500 r/min for 20 min, and the supernatant was stored in a refrigerator at −20° C. ready for SOD and MDA detection. After the blood was drawn, a perfusion needle was insert through the apex to the ascending aorta, and saline at 4° C. was rapid infused until the effluent became clear, followed by 4% paraformaldehyde phosphate buffer perfusion for fixation; the brain was removed by craniotomy, and brain tissues 2 mm in front of and behind the optic chiasma were taken and fixed, dehydrated, rendered transparent, impregnated in wax, and embedded. Brain continuous coronary tissue pathological sections were consecutively cut for later use. The remaining 8 rats in each group were sacrificed, brains were removed, the ischemic brain hemispheres were immediately taken on an ice tray, and 10% brain tissue homogenate was prepared for the detection of IL-1β and TNF-α.
(§3) SOD and MDA were determined strictly in accordance with instructions of the kit.

[2] = system: SOD; assay: SOD determination, cerebral ischemic reperfusion MCAO model
Method: as §1, with “group, the ischemic reperfusion group, and” for “group, the permanent cerebral ischemia model group, and”, “waking up. After 2 h, the thread was pulled out to achieve reperfusion. The sham” for “waking up. The sham”, “min before reperfusion and 12” for “min before insertion of thread and 12”, “h after reperfusion, respectively. The” for “h after embolism, respectively. The”, “and the ischemic reperfusion group were” for “and the permanent cerebral ischemia model group were”
as §2, with “reperfusion,” for “the embolism,”, “−20° i” for “−20°i”
as §3

[3] = system: Fas; assay: Fas determination (immunohistochemical method), cerebral ischemic reperfusion MCAO model
Method: as §1, with “group, the ischemic reperfusion group, and” for “group, the permanent cerebral ischemia model group, and”, “waking up. After 2 h, the thread was pulled out to achieve reperfusion. The sham” for “waking up. The sham”, “min before reperfusion and 12” for “min before insertion of thread and 12”, “h after reperfusion, respectively. The” for “h after embolism, respectively. The”, “and the ischemic reperfusion group were” for “and the permanent cerebral ischemia model group were”
as §2, with “reperfusion,” for “the embolism,”, “−20° i” for “−20°i”
(§4) The immunohistochemical method was used for determination. Brain tissue paraffin sections were dewaxed into water, washed with 3% H2O2 to eliminate endogenous peroxidase activity, and rinsed with distilled water for 3 times. Sodium citrate buffer was used for antigen heat repairing, and blocking with calf serum was carried out at room temperature for 15 min; a rabbit anti-mouse Fas antibody was added dropwise, allowed to stand at 4°t overnight, biotinylated goat anti-rabbit IgG was added dropwise, and heated in a water bath at 37°a for 20 min. Washing with PBS for 5 min was continuously repeated 4 times, followed by staining with DAB and sufficient washing without counterstaining. The sections were then gradient dehydrated with alcohol, made transparent with toluene, sealed and fixed. Images were captured by a video camera under high-power optical microscope and inputted into the image analysis system for image analysis. […]

[4] = system: MDA; assay: MDA determination, cerebral ischemic reperfusion MCAO model
Method: as §1, with “group, the ischemic reperfusion group, and” for “group, the permanent cerebral ischemia model group, and”, “waking up. After 2 h, the thread was pulled out to achieve reperfusion. The sham” for “waking up. The sham”, “min before reperfusion and 12” for “min before insertion of thread and 12”, “h after reperfusion, respectively. The” for “h after embolism, respectively. The”, “and the ischemic reperfusion group were” for “and the permanent cerebral ischemia model group were”
as §2, with “reperfusion,” for “the embolism,”, “−20° i” for “−20°i”
as §3

[5] = system: MDA; assay: MDA determination, permanent cerebral ischemia model
Method: as §1, §2, §3

[6] = system: Fas; assay: Fas determination (immunohistochemical method), permanent cerebral ischemia model
Method: as §1, §2, §4

CC(C)c1cccc(C(C)C)c1O [Propofol injection, propofol, reference compound]
SOD ACTIVITY (U/mL) [1]: 89.13 ± 3.82 U/mL | SOD ACTIVITY (U/mL) [2]: 88.25 ± 2.19 U/mL | Fas average gray scale [3]: 142.15 ± 5.71 | MDA CONTENT [4]: 5.58 ± 0.48 mmol/mL | MDA CONTENT [5]: 6.10 ± 0.29 mmol/mL | Fas average gray value [6]: 140.51 ± 4.84
